Biological target: T1, KRAS G12C 1-169, his-tagged protein, GDP-loaded (Homo sapiens, UniProt P01116, G12C)
T1 construct: KRAS G12C 1-169, his-tagged protein, GDP-loaded
Test: Covalent binding (% modification) to KRAS G12C by mass spectrometry; note: test concentration or dose not given here

[1] = covalent binding to KRAS G12C after a ten minute incubation period

Compound	Binding % (% modification at 10 min (footnote †))	Binding % [1]
CC#CC(=O)N1C[C@H](C)N(c2nc(N3CC(N(C)C)C3)nc3c(F)c(-c4c(O)cccc4F)c(Cl)cc23)C[C@H]1C [Compound 114, 1-((2R,5S)-4-(6-chloro-2-(3-(dimethylamino)azetidin-1-yl)-8-fluoro-7-(2-fluoro-6-hydroxyphenyl)quinazolin-4-yl)-2,5-dimethyl-piperazin-1-yl) but-2-yn-1-one]	+ (+ indicates binding activity greater than 0% and up to 50%)	–
C=CC(=O)N1[C@H](C)CN(c2nc(OCCN3CC(F)(F)C3)nc3c(F)c(-c4c(C)ccc5cn[nH]c45)c(Cl)cc23)C[C@@H]1C [Compound 30, 1-((2R,6S)-4-(6-chloro-2-(2-(3,3-difluoroazetidin-1-yl)ethoxy)-8-fluoro-7-(6-methyl-1H-indazol-7-yl)quinazolin-4-yl)-2,6-dimethyl-piperazin-1-yl) prop-2-en-1-one]	–	++ (++ indicates binding activity from 50 to 90%)
C=CC(=O)N1C[C@H](C)N(c2nc(OCCN(CC)CC)nc3c(F)c(-c4c(C)ccc5[nH]ncc45)c(Cl)cc23)C[C@H]1C [Compound 77, 1-((2R,5S)-4-(6-chloro-2-(2-(diethylamino)ethoxy)-8-fluoro-7-(5-methyl-1H-indazol-4-yl)quinazolin-4-yl)-2,5-dimethyl-piperazin-1-yl) prop-2-en-1-one]	–	+++ (+++ indicates binding activity greater than 90%)
C=CC(=O)N1C[C@H](C)N(c2nc(N3CC(N(C)C)C3)nc3c(F)c(-c4c(C)ccc5[nH]ncc45)c(Cl)cc23)C[C@H]1C [Compound 54, 1-((2R,5S)-4-(6-chloro-2-(3-(dimethylamino)azetidin-1-yl)-8-fluoro-7-(5-methyl-1H-indazol-4-yl)quinazolin-4-yl)-2,5-dimethyl-piperazin-1-yl) prop-2-en-1-one]	–	+++ (+++ indicates binding activity greater than 90%)

— patent publication US10646488B2 (Araxes Pharma LLC, priority 2016, dated 2020)
